Experimental findings from US11952365B2, “Anti-viral compounds” (Aligos Therapeutics, Inc., priority 2020, dated 2024) are described below.

Where two headings read alike, the source gives them in different places.

Data set [1] addresses HRV3C (Human rhinovirus 14, UniProt P03303). The data set is described as follows: HRV3C protease assay (duplex, SAMDI-MS). The following applies: 30 mins preincubation, class symbols. It counts as biochemical, HRV. How it is done:
Protease assays were performed in 384-well low volume polypropylene microtiter plates at ambient temperature. For the duplex assay, 3CLpro and HRV3C was added using a Multidrop Combi (Thermo Scientific; Waltham, MA) and preincubated for 30 mins with small molecules. The reactions were initiated by the addition of the two peptide substrates. The reactions were incubated for 30 mins and quenched by the addition of 0.5% formic acid (final) with subsequent neutralization using 1% sodium bicarbonate (final). Internal standard peptides were added in 20 mM Hepes pH 8.0 for quantitation of the protease products. For SAMDI-MS analysis, 2 μL of each reaction mixture was transferred using a 384-channel automated liquid handler to SAMDI biochip arrays functionalized with a neutravidin-presenting self-assembled monolayer. The SAMDI arrays were incubated for 1 h in a humidified chamber to allow the specific immobilization of the biotinylated peptide substrates, cleaved products and internal standards. The samples were purified by washing the SAMDI arrays with deionized ultrafiltered water and dried with compressed air. A matrix comprising alpha-cyano cinnamic acid in 80% acetonitrile:20% aqueous ammonium citrate was applied in an automated format by dispensing 50 nL to each spot in the array. SAMDI-MS was performed using reflector-positive mode on an AB Sciex TOF-TOF 5800 System (AB Sciex, Framingham, MA) with 400 shots/spot analyzed in a random raster sampling. For data analysis, area under the curves (peaks) (AUCs) for the product and internal standard were calculated using the TOF/TOF Series Explorer (AB Sciex), and the amount of product formed was calculated using the equation (AUC product/AUC internal standard). The amount of product generated was calculated using the ratio of product area under the curve (AUC) divided by the AUC of the internal standard. Negative controls were pre-quenched with 0.5% formic acid final. Assay robustness was determined by Z-Factor. The IC50s were determined by fitting the curves using a four-parameter equation in Graphpad Prism 8.

Data set [2] concerns human beta-coronavirus OC43. The data set is described as follows: microbe, parasite or virus in culture. As to conditions: Betacoronavirus 1, OC43, HeLa, 144 h, OC43 in HeLa cells, 6 days at 33° C., class symbols; read-out: EC50. Format: cell-based.
The nature of data set [3]: Cytotoxicity plates without OC43 virus (cell-titer-glo). It counts as cell-based, human. As to conditions: human; HeLa cells without OC43 virus, class symbols. How it is done:
The human beta-coronavirus OC43 was purchased from ATCC (Manassas, VA) and propagated using HCT-8 human colorectal epithelial cells (ATCC). HeLa human cervical epithelial cells (ATCC) were used as susceptible host cell lines and were cultured using EMEM media, supplemented with 10% fetal bovine serum (FBS), 1% (v/v) penicillin/streptomycin (P/S), 1% (v/v) HEPES and 1% (v/v) Cellgro Glutagro™ supplement (all Corning, Manassas, VA) at 37° C. For the OC43 antiviral assay, 1.5×10^4 HeLa cells per well were plated in 100 μL complete media in white 96-well plates with clear bottoms at 37° C. for up to 24 h to facilitate attachment and allow cells to recover from seeding stresses. Next day, the cell culture medium was removed. Serially diluted compounds in 100 μL assay media (EMEM, 2% FBS, 1% P/S, 1% Cellgro Glutagro™ supplement, 1% HEPES) were added to the cells and incubated for 4H at 37° C. in a humidified 5% CO2 incubator. 100 μL of OC43 virus stock was diluted to a concentration known to produce optimal cytopathic effect, inducing 80-90% reduction in cell viability. 96-well plates were incubated for 6 (HeLa) days at 33° C.; each plate contains uninfected control wells as well as virus-infected wells that were not treated with compound. Cytotoxicity plates without the addition of OC43 virus were carried out in parallel. At the end of the incubation period, 100 μL cell culture supernatant was replaced with 100 μL cell-titer-glo reagent (Promega, Madison, WI) and incubated for at least 10 min at rt prior to measuring luminescence. Luminescence was measured on a Perkin Elmer (Waltham, MA) Envision plate reader. Antiviral % inhibition was calculated as follows: [(Compound treated cells infected sample)−(no compound infected control)]/[(Uninfected control)−(no compound infected control)]*100; Using GraphPad (San Diego, CA) prism software version 8.3.1, the antiviral dose-response plot was generated as a sigmoidal fit, log(inhibitor) vs response-variable slope (four parameters) model and the EC50 was calculated which is the predicted compound concentration corresponding to a 50% inhibition of the viral cytopathic effect.

The test system of data set [4] is SARS-CoV-2-GHB-03021/2020. The data set is described as follows: microbe, parasite or virus in culture. It counts as cell-based. The following applies: Severe acute respiratory syndrome coronavirus 2, Vero C1008, 96 h; read-out: VeroE6 + CP (EC50).
A short description of data set [5]: in vitro. The following applies: African green monkey, VeroE6 + CP (CC50), Vero E6-eGFP cells with CP-100356, absence of virus, MTS.
The target in data set [6] is 3CLpro (Severe acute respiratory syndrome coronavirus 2, UniProt P0DTD1). The data set is described as follows: SARS-CoV-2 3CLpro protease assay (duplex, SAMDI-MS). It counts as biochemical. On the set-up: For the duplex assay, 3CLpro and HRV3C was added. As to conditions: 3CLpro, 30 mins preincubation, class symbols; read-out: SARS-Cov-2 IC50.
Data set [7] concerns the target T1, human cathepsin L (Homo sapiens, UniProt P07711).
T1 construct: purchased R&D Systems
Description: cathepsin L assay. Format: biochemical. The following applies: 10 pM human cathepsin L, Z-FR-AMC 2 μM, class symbols. How it is done:
For the cathepsin L assay, 10 pM of human cathepsin L (R&D Systems; Minneapolis, MN) was preincubated for 30 mins with test compounds. Reactions were initiated by the addition of a peptide substrate Z-FR-AMC (final concentration 2 μM, Anaspec; Fremont, CA). Fluorescence was measured at 2-minute intervals for 30 mins using a 355/460 excitation/emission filter module on an Envision plate reader (Perkin Elmer; Waltham, MA). The IC50 values were calculated for each assay by fitting the curves using a four-parameter equation in GraphPad Prism.

HRV3C, sequence (P03303 1538-1719): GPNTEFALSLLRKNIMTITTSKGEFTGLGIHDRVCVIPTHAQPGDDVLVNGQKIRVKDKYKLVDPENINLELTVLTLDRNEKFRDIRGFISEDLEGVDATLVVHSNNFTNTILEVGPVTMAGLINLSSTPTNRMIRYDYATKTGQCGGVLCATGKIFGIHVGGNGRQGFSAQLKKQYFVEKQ
T1 sequence (P07711 114-333): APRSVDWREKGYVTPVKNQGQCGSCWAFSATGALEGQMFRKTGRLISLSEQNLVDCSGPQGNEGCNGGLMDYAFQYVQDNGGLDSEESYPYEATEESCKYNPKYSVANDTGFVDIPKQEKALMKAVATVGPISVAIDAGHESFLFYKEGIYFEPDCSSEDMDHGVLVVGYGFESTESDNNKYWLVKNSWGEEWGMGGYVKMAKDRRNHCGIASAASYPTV

Consider `O=C(NCc1ccccc1)C(=O)C(C[C@@H]1CCNC1=O)NC(=O)[C@@H]1CCCCN1C(=O)c1cc2ccccc2[nH]1` (stereo partly drawn) [Compound 1, (2S)—N-(4-(benzylamino)-3,4-dioxo-1-((S)-2-oxopyrrolidin-3-yl)butan-2-yl)-1-(1H-indole-2-carbonyl)piperidine-2-carboxamide], for which the IC50 (as a rule, the midpoint of a concentration-inhibition curve) lay in the range of 20 to 100 µM in data set [1] (HRV IC50, HRV3C) and 2 to 20 µM in data set [6]. The EC50 (in general, the concentration at which the effect is half-maximal) was 1 to 10 µM in data set [2] and more than 100 µM in data set [4]. The CC50 (as a rule, the concentration giving 50% cytotoxicity) at 6 days in data set [3] was more than 10 µM. Besides, in data set [5] (numeric bounds), the CC50 was more than 100 µM.

In the case of `O=C(NCc1ccccc1)C(=O)C(C[C@@H]1CCNC1=O)NC(=O)[C@@H]1[C@H]2CCC[C@H]2CN1C(=O)c1cc2ccccc2[nH]1` (stereo partly drawn) [Compound 2, (1S,3aR,6aS)—N-(4-(benzylamino)-3,4-dioxo-1-((S)-2-oxopyrrolidin-3-yl)butan-2-yl)-2-(1H-indole-2-carbonyl)-octahydrocyclopenta[c]pyrrole-1-carboxamide], the IC50 lay within 2 to 20 µM in data set [1] (HRV3C, read-out: HRV IC50); 1 to 10 µM in data set [7]; 0.2 to 2 µM in data set [6]. For the same compound, the EC50 in data set [2] is 0.1 to 1 µM; in data set [4], 1 to 10 µM. The same compound displayed a half-maximal cytotoxic concentration (CC50) at 6 days in data set [3] of more than 10 µM. For the same compound, the CC50 in data set [5] (class symbols) is more than 10 µM.

Regarding `CC1(C)[C@@H]2[C@@H](C(=O)NC(C[C@@H]3CCNC3=O)C(=O)C(=O)NCc3ccccc3)N(C(=O)c3cc4ccccc4[nH]3)C[C@@H]21` (stereo partly drawn) [Compound 4, N-benzyl-3-[[(1R,2S,5S)-3-(1H-indole-2-carbonyl)-6,6-dimethyl-3-azabicyclo[3.1.0]hexan-2-yl]formamido]-2-oxo-4-[(3S)-2-oxopyrrolidin-3-yl]butanamide], the IC50 in data set [1] (HRV3C, read-out: HRV IC50) fell in the range of 2 to 20 µM; in data set [7], 0.1 to 1 µM; in data set [6], 0.2 to 2 µM. Further, the EC50 in data set [2] and in data set [4] was 1 to 10 µM throughout. In data set [3], this compound registered a CC50 at 6 days of more than 10 µM. Also, the CC50 in data set [5] (numeric bounds) is more than 100 µM.

Take `O=C(NCc1ccccc1)C(=O)C(C[C@@H]1CCNC1=O)NC(=O)[C@@H]1C[C@@H](Oc2ccccc2)CN1C(=O)c1cc2ccccc2[nH]1` (some centres unmarked) [Compound 5]: the IC50 in data set [1] (HRV IC50, HRV3C) was in the range of 0.2 to 2 µM; in data set [6] it was 20 to 100 µM. In addition, the EC50 is 1 to 10 µM in data set [2] and 10 to 100 µM in data set [4]. For the same compound, in data set [3], the CC50 at 6 days was more than 10 µM. Also, in data set [5] (numeric bounds), the CC50 is more than 100 µM.

For the compound `O=C(NCc1ccccc1)C(=O)C(C[C@@H]1CCNC1=O)NC(=O)[C@@H]1C[C@@H](OCc2ccccc2)CN1C(=O)c1cc2ccccc2[nH]1` (some centres unmarked) [Compound 6], the IC50 in data set [1] (HRV IC50, HRV3C) was 0.2 to 2 µM; in data set [6], 2 to 20 µM. Moreover, the half-maximal effective concentration (EC50) in data set [2] is 1 to 10 µM; in data set [4], more than 100 µM. This compound also registered a CC50 at 6 days in data set [3] of more than 10 µM. The CC50 in data set [5] (numeric bounds) is more than 100 µM.

In the case of `O=C(NCc1ccccc1)C(=O)C(C[C@@H]1CCNC1=O)NC(=O)[C@@H]1[C@H]2CC[C@H](C2)N1C(=O)c1cc2ccccc2[nH]1` (some centres unmarked) [Compound 8], the IC50 was in the range of 2 to 20 µM in data set [1] (HRV3C, read-out: HRV IC50); 0.1 to 1 µM in data set [7]; 0.2 to 2 µM in data set [6]. The concentration giving a half-maximal response (EC50) is 1 to 10 µM in data set [2] and 10 to 100 µM in data set [4]. In addition, the CC50 at 6 days in data set [3] is more than 10 µM. In addition, the CC50 in data set [5] (numeric bounds) was more than 100 µM.

For `O=C(NCc1ccccc1)C(=O)C(C[C@@H]1CCNC1=O)NC(=O)[C@@H]1CC2(CC2)CN1C(=O)c1cc2ccccc2[nH]1` (some centres unmarked) [Compound 9], the IC50 in data set [1] (HRV3C, read-out: HRV IC50) is 2 to 20 µM; in data set [7], 0.1 to 1 µM; in data set [6], 0.02 to 0.2 µM. Moreover, the EC50 in data set [2] was in the range of 0.1 to 1 µM; in data set [4], 1 to 10 µM. Besides, in data set [3], the CC50 at 6 days was more than 10 µM. In addition, the CC50 in data set [5] (numeric bounds) was more than 100 µM.

Take `CC(C)(C)O[C@@H]1C[C@@H](C(=O)NC(C[C@@H]2CCNC2=O)C(=O)C(=O)NCc2ccccc2)N(C(=O)c2cc3ccccc3[nH]2)C1` (some centres unmarked) [Compound 10]: the IC50 in data set [1] (HRV IC50, HRV3C) was in the range of 0.2 to 2 µM; in data set [6], 2 to 20 µM. Further, the EC50 in data set [2] is 1 to 10 µM; in data set [4], more than 100 µM. The same compound showed a CC50 at 6 days in data set [3] of more than 10 µM. For the same compound, the CC50 in data set [5] (numeric bounds) was more than 100 µM.

With `CC1(C)C[C@@H](C(=O)NC(C[C@@H]2CCNC2=O)C(=O)C(=O)NCc2ccccc2)N(C(=O)c2cc3ccccc3[nH]2)C1` (some centres unmarked) [Compound 11], the IC50 was 2 to 20 µM in data set [1] (HRV3C, read-out: HRV IC50); less than 0.1 µM in data set [7]; 0.2 to 2 µM in data set [6]. Also, the EC50 was 1 to 10 µM in data set [2] and 10 to 100 µM in data set [4]. Besides, the CC50 at 6 days in data set [3] is more than 10 µM. The CC50 in data set [5] (numeric bounds) is more than 100 µM.

For the compound `CO[C@@H]1C[C@@H](C(=O)NC(C[C@@H]2CCNC2=O)C(=O)C(=O)NCc2ccccc2)N(C(=O)c2cc3ccccc3[nH]2)C1` (some centres unmarked) [Compound 12], the IC50 in data set [1] (HRV IC50, HRV3C) was in the range of 20 to 100 µM; in data set [6] it was 2 to 20 µM. The EC50 in data set [2] was 10 to 100 µM; in data set [4], more than 100 µM. In data set [3], this compound displayed a CC50 at 6 days of more than 10 µM. The CC50 in data set [5] (numeric bounds) was more than 100 µM.

In the case of `O=C[C@H](C[C@@H]1CCNC1=O)NC(=O)[C@@H]1[C@H]2CCC[C@H]2CN1C(=O)c1cc2ccccc2[nH]1` [Compound 13, (1S,3aR,6aS)-2-(1H-indole-2-carbonyl)-N-[(2S)-1-oxo-3-[(3S)-2-oxopyrrolidin-3-yl]propan-2-yl]-hexahydro-1H-cyclopenta[c]pyrrole-1-carboxamide], the IC50 in data set [1] (HRV3C, read-out: HRV IC50) is 0.2 to 2 µM; in data set [7], 1 to 10 µM; in data set [6] it was less than 0.02 µM. For the same compound, the concentration giving a half-maximal response (EC50) in data set [2] and in data set [4] was 1 to 10 µM throughout. In data set [3], this compound displayed a CC50 at 6 days of more than 10 µM. In addition, the 50% cytotoxic concentration (CC50) in data set [5] (numeric bounds) was more than 100 µM.

For the compound `C=CC[C@@H]1C[C@@H](C(=O)N[C@@H](C[C@@H]2CCNC2=O)C(=O)C(=O)NCc2ccccc2)N(C(=O)c2cc3ccccc3[nH]2)C1` [Compound 21], the IC50 was 2 to 20 µM in data set [1] (HRV IC50, HRV3C) and 0.2 to 2 µM in data set [6]. In addition, the EC50 lay within 0.1 to 1 µM in data set [2] and 10 to 100 µM in data set [4]. Besides, the CC50 at 6 days in data set [3] was more than 10 µM.
